Several values for one entry are separate records, joined by “and”; a condition that tells them apart may be missing. Equal entries are not always repeated.
How the values were obtained:
[1] = system: A549 cells; test: Cell viability by MTT method in A549 cells; type: cell-based; design: concentration or dose not given beside the values; conditions: 72 hours treatment
[2] = molecular target: T1, AIMP2-DX2 (Homo sapiens, UniProt Q13155); test: DX2-nanoluciferase assay (DX2 expression change) in transfected A549 cells; conditions: for inhibition at 10 µM / inhibition at 40 µM: A549, 4 h; for inhibition at 10 µM: read-out: DX-Nanoluciferase activity (10 μM), 10 μM, 4 hours treatment, A549 cells transfected with nanoluciferase-DX2; for inhibition at 40 µM: read-out: DX-Nanoluciferase activity (40 μM), 40 μM, 4 hours treatment, A549 cells transfected with nanoluciferase-DX2
T1 sequence (Q13155 1-251 isoform Q13155-2): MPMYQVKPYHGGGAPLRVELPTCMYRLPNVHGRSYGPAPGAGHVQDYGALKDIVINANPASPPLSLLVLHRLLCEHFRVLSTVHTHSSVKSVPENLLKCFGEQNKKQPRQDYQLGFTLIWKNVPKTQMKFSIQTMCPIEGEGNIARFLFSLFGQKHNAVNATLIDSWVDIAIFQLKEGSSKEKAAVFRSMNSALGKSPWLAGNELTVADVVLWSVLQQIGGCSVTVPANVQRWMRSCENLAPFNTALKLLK
Description: After cloning DX2 into a plasmid expressing nanoluciferase, the plasmid was transfected into A549 cells. Transfected cells were seeded 1×10^4 per well in a 96-well plate and stabilized for 12 hours. […] Cell viability was measured by the MTT method after 72 hours of treatment with each concentration of the compound in A549 cells.

[3] = 4 hours treatment, A549 cells transfected with nanoluciferase-DX2
[4] = inhibitory effect on AIMP2-DX2 expression

Row | SMILES | DX-Nanoluciferase activity (10 μM) [2, 3] | inhibition at 10 µM [2] | inhibition at 40 µM [2, 4] | Cell Viability (% inhibition) (A549) [1] | DX-Nanoluciferase activity (40 μM) ([2]; 40 μM, 4 hours treatment, A549 cells transfected with nanoluciferase-DX2, inhibitory effect on AIMP2-DX2 expression)
1 | COc1ccc(C(=O)NNC(=O)[C@H](Cc2c[nH]c3ccccc23)NS(=O)(=O)c2ccc(C)cc2)cc1 [Compound 182, (S)—N-(3-(1H-indol-3-yl)-1-(2-(4-methoxybenzoyl)hydrazinyl)-1-oxopropan-2-yl)-4-methylbenzenesulfonamide] | 69.62 ± 3.16 (10 μM) |  |  | 0.19 ± 15.38% | 
2 | COc1ccc(NC(=O)NNC(=O)[C@H](Cc2c[nH]c3ccccc23)NS(=O)(=O)c2ccc(C)cc2)cc1 [Compound 183, (S)-2-(3-(1H-indol-3-yl)-2-(4-methylphenylsulfonamido)propanoyl)-N-(4-methoxyphenyl)hydrazinecarboxamide] |  | 68.1 ± 8.2% |  | 42.25 ± 5.21% | 
3 | Cc1cc(C)n(C(=O)[C@H](Cc2c[nH]c3ccccc23)NS(=O)(=O)c2ccc(Br)cc2)n1 [Compound 184, (S)-4-Bromo-N-(1-(3,5-dimethyl-1H-pyrazol-1-yl)-3-(1H-indol-3-yl)-1-oxopropan-2-yl)benzenesulfonamide] |  | 78.4% |  | −24.64 ± 2.77% | 
4 | Cc1ccc(S(=O)(=O)N[C@@H](Cc2c[nH]c3ccccc23)C(=O)NNC(=O)C23CC4CC(CC(C4)C2)C3)cc1 [Compound 186, N—((S)-1-(2-((3S,5S,7S)-adamantane-1-carbonyl)hydrazinyl)-3-(1H-indol-3-yl)-1-oxopropan-2-yl)-4-methylbenzenesulfonamide] | 78.43 ± 6.05 (10 μM) |  |  | 59.96 ± 10.37% | 
5 | Cc1ccc(-c2csc(NC(=O)[C@H](Cc3c[nH]c4ccccc34)NS(=O)(=O)c3ccc(Br)cc3)n2)cc1 [Compound 187, (S)-2-(4-Bromophenylsulfonamido)-3-(1H-indol-3-yl)-N-(4-(p-tolyl)thiazol-2-yl)propanamide] |  | 34.9 ± 10.6% |  | 61.41 ± 4.21% | 
6 | Cc1ccc(S(=O)(=O)N[C@@H](Cc2c[nH]c3ccccc23)C(=O)NCCc2ccccc2)cc1 [Compound 188, (S)-3-(1H-indol-3-yl)-2-(4-methylphenylsulfonamido)-N-phenethylpropanamide] |  | 61.1 ± 12.9% |  | 53.90 ± 1.97% | 
7 | COc1ccc(C(=O)NNC(=O)[C@H](Cc2c[nH]c3ccccc23)NS(=O)(=O)c2ccc(C)cc2)cc1 [Compound 191, (S)—N-(3-(1H-Indol-3-yl)-1-(2-(4-methoxybenzoyl)hydrazinyl)-1-oxopropan-2-yl)-4-methylbenzenesulfonamide] | 8.09 ± 6.94 (10 μM) |  |  | 49.17 ± 2.36% | 
8 | N#Cc1ccc(-c2csc(NC(=O)[C@H](Cc3c[nH]c4ccccc34)NS(=O)(=O)c3ccc(Br)cc3)n2)cc1 [Compound 192, (S)-2-(4-Bromophenylsulfonamido)-N-(4-(4-cyanophenyl)thiazol-2-yl)-3-(1H-Indol-3-yl)propanamide] |  | 15.5 ± 3.27% |  | 81.69 ± 2.49% | 
9 | O=C(Nc1nc(-c2ccc(C(F)(F)F)cc2)cs1)[C@H](Cc1c[nH]c2ccccc12)NS(=O)(=O)c1ccc(Br)cc1 [Compound 193, (S)-2-(4-Bromophenylsulfonamido)-3-(1H-Indol-3-yl)-N-(4-(4-(trifluoromethyl)phenyl)thiazol-2-yl)propanamide] |  | 49.3 ± 9.52% |  | 88.98 ± 0.59% and 88.98 ± 10.59% | 
10 | O=C(NCCc1ccccc1)[C@H](Cc1c[nH]c2ccccc12)NS(=O)(=O)c1ccc(Br)cc1 [Compound 196, (S)-2-(4-Bromophenylsulfonamido)-3-(1H-indol-3-yl)-N-phenethylpropanamide] |  | 28.2 ± 2.11% |  | 79.27 ± 0.55% | 
11 | O=C(NNC(=O)C12CC3CC(CC(C3)C1)C2)[C@H](Cc1c[nH]c2ccccc12)NS(=O)(=O)c1ccc(Br)cc1 [Compound 197, N—((S)-1-(2-((3S,5S,7S)-adamantane-1-carbonyl)hydrazinyl)-3-(1H-indol-3-yl)-1-oxopropan-2-yl)-4-bromobenzenesulfonamide] | 43.54 ± 5.26 (10 μM) and 43.64 ± 5.26 (10 μM) |  |  | 84.86 ± 1.09% | 
12 | O=C(NCCc1ccc(F)cc1)[C@H](Cc1c[nH]c2ccccc12)NS(=O)(=O)c1ccc(Br)cc1 [Compound 198, (S)-2-(4-Bromophenylsulfonamido)-N-(4-fluorophenethyl)-3-(1H-indol-3-yl)propanamide] |  | 44.2 ± 8.7% |  | 82.05 ± 0.64% | 
13 | O=C(NC12CC3CC(CC(C3)C1)C2)[C@H](Cc1c[nH]c2ccccc12)NS(=O)(=O)c1ccc(Br)cc1 [Compound 201, (S)—N((3R,5R,7R)-adamantan-1-yl)-2-(4-bromophenylsulfonamido)-3-(1H-Indol-3-yl)propanamide] |  |  |  | 87.1 ± 0.46% | 58.25 ± 4.09

The next lines start with results.

Row | DX-Nanoluciferase activity (10 μM) [2, 3] | inhibition at 10 µM [2] | inhibition at 40 µM [2, 4] | SMILES | Cell Viability (% inhibition) (A549) [1] | DX-Nanoluciferase activity (40 μM) ([2]; 40 μM, 4 hours treatment, A549 cells transfected with nanoluciferase-DX2, inhibitory effect on AIMP2-DX2 expression)
14 |  |  | 30.6 ± 8.13% | COc1ccc(CCNC(=O)[C@H](Cc2c[nH]c3ccccc23)NS(=O)(=O)c2ccc(Br)cc2)cc1 [Compound 199, (S)-2-(4-Bromophenylsulfonamido)-3-(1H-indol-3-yl)-N-(4-methoxyphenethyl)propanamide] | 84.34 ± 0.87% | 
15 |  |  | 46.4 ± 4.51% | O=C(NCCCc1ccccc1)[C@H](Cc1c[nH]c2ccccc12)NS(=O)(=O)c1ccc(Br)cc1 [Compound 200, (S)-2-(4-Bromophenylsulfonamido)-3-(1H-indol-3-yl)-N-(3-phenylpropyl)propanamide] | 79.27 ± 0.9% | 
16 |  |  | 38.6 ± 11.3% | COc1ccc(N2CCN(C(=O)[C@H](Cc3c[nH]c4ccccc34)NS(=O)(=O)c3ccc(Br)cc3)CC2)cc1 [Compound 202, (S)—N-(3-(1H-indol-3-yl)-1-(4-(4-methoxyphenyl)piperazin-1-yl)-1-oxopropan-2-yl)-4-bromobenzenesulfonamide] | 78.44 ± 2.44% | 
17 |  |  | 35.1 ± 14.2% | COc1ccc(N2CCN(C(=O)[C@H](Cc3c[nH]c4ccccc34)NS(=O)(=O)c3ccc(C)cc3)CC2)cc1 [Compound 203, (S)—N-(3-(1H-indol-3-yl)-1-(4-(4-methoxyphenyl)piperazin-1-yl)-1-oxopropan-2-yl)-4-methylbenzenesulfonamide] | 48.15 ± 3.26% | 
18 |  | 21.3% |  | COc1ccc(-c2csc(NC(=O)[C@H](Cc3c[nH]c4ccc(O)cc34)NS(=O)(=O)c3ccc(Br)cc3)n2)cc1 [Compound 217, (S)-2-(4-Bromophenylsulfonamido)-3-(5-hydroxy-1H-indol-3-yl)-N-(4-(4-methoxyphenyl)thiazol-2-yl)propanamide] | 89.41 ± 0.79% | 
19 |  | 34.8% |  | COc1ccc(-c2csc(NC(=O)[C@H](Cc3c[nH]c4ccc(C)cc34)NS(=O)(=O)c3ccc(Br)cc3)n2)cc1 [Compound 218, (S)-2-(4-Bromophenylsulfonamido)-N-(4-(4-methoxyphenyl)thiazol-2-yl)-3-(5-methyl-1H-indol-3-yl)propanamide] | 90.98 ± 1% | 
20 |  | 46.9 ± 8.36% |  | COc1ccc(-c2csc(NC(=O)[C@H](Cc3c[nH]c4ccc(F)cc34)NS(=O)(=O)c3ccc(Br)cc3)n2)cc1 [Compound 219, (S)-2-(4-Bromophenylsulfonamido)-3-(5-fluoro-1H-indol-3-yl)-N-(4-(4-methoxyphenyl)thiazol-2-yl)propanamide] | 95.58 ± 0.08% | 
21 |  | 15.9 ± 19.4% |  | Cc1ccc(S(=O)(=O)N[C@@H](Cc2c[nH]c3ccccc23)C(=O)NCCc2ccc(C(=O)O)cc2)cc1 [Compound 220, (S)-4-(2-(3-(1H-indol-3-yl)-2-(4-methylphenylsulfonamido)propanamido)ethyl)benzoic acid] | −11.09 ± 8.4% | 
22 |  | 40.1 ± 3.09% |  | Cc1ccc(S(=O)(=O)N[C@@H](Cc2c[nH]c3ccccc23)C(=O)NCCc2ccc(Br)cc2)cc1 [Compound 221, (S)—N-(4-bromophenethyl)-3-(1H-indol-3-yl)-2-(4-methylphenylsulfonamido)propanamide] | 97.31 ± 0.8% | 
23 |  | 31.3 ± 14.7% |  | Cc1ccc(S(=O)(=O)N[C@@H](Cc2c[nH]c3ccccc23)C(=O)NCCc2c[nH]c3ccccc23)cc1 [Compound 222, (S)—N-(2-(1H-indol-3-yl)ethyl)-3-(1H-indol-3-yl)-2-(4-methylphenylsulfonamido)propanamide] | 91.05 ± 1.38% | 
24 |  | 34.9 ± 11.8% |  | Cc1ccc(CCNC(=O)[C@H](Cc2c[nH]c3ccccc23)NS(=O)(=O)c2ccc(C)cc2)cc1 [Compound 223, (S)-3-(1H-indol-3-yl)-N-(4-methylphenethyl)-2-(4-methylphenylsulfonamido)propanamide] | 93.28 ± 1.51% | 
25 |  | 42.7 ± 8.97% |  | CCOC(=O)C(Cc1c[nH]c2ccccc12)NC(=O)[C@H](Cc1c[nH]c2ccccc12)NS(=O)(=O)c1ccc(C)cc1 (stereo partly drawn) [Compound 224, Ethyl 2-((S)-3-(1H-indol-3-yl)-2-(4-methylphenylsulfonamido)propanamido)-3-(1H-indol-3-yl)propanoate] | 93.83 ± 0.34% | 
26 |  | 88.7 ± 6.08% |  | Cc1ccc(S(=O)(=O)N[C@@H](Cc2c[nH]c3ccccc23)C(=O)NCCc2ccc(Cl)cc2)cc1 [Compound 225, (S)—N-(4-chlorophenethyl)-3-(1H-indol-3-yl)-2-(4-methylphenylsulfonamido)propanamide] | 95.8 ± 0.48% | 
